Key:
cSRC(h) = target: T1, cSRC(h) (Homo sapiens, UniProt P12931); test: KinaseProfiler assay (Upstate), cSRC; format: biochemical
T1 construct: purchased Upstate Biotechnology (Dundee, UK), KinaseProfiler service
Method: (§1) Further enzyme assays were conducted at Upstate Biotechnology (Dundee, UK) in the KinaseProfiler™ Assay system.
(§2) The general protocol is as follows. All kinases are pre-diluted to a 10× working concentration prior to addition into the assay. The composition of the dilution buffer for the kinases is 20 mM MOPS pH 7.0, 1 mM EDTA, 0.1% β-mercaptoethanol, 0.01% Brij-35, 5% glycerol, 1 mg/ml BSA. All substrates are dissolved and diluted to working stocks in de-ionised water.

EphA3(h) = target: T2, EphA3(h) (Homo sapiens, UniProt P29320); test: KinaseProfiler assay (Upstate), EphA3; format: biochemical
T2 construct: purchased Upstate Biotechnology (Dundee, UK), KinaseProfiler service
T2 sequence (P29320 21-983): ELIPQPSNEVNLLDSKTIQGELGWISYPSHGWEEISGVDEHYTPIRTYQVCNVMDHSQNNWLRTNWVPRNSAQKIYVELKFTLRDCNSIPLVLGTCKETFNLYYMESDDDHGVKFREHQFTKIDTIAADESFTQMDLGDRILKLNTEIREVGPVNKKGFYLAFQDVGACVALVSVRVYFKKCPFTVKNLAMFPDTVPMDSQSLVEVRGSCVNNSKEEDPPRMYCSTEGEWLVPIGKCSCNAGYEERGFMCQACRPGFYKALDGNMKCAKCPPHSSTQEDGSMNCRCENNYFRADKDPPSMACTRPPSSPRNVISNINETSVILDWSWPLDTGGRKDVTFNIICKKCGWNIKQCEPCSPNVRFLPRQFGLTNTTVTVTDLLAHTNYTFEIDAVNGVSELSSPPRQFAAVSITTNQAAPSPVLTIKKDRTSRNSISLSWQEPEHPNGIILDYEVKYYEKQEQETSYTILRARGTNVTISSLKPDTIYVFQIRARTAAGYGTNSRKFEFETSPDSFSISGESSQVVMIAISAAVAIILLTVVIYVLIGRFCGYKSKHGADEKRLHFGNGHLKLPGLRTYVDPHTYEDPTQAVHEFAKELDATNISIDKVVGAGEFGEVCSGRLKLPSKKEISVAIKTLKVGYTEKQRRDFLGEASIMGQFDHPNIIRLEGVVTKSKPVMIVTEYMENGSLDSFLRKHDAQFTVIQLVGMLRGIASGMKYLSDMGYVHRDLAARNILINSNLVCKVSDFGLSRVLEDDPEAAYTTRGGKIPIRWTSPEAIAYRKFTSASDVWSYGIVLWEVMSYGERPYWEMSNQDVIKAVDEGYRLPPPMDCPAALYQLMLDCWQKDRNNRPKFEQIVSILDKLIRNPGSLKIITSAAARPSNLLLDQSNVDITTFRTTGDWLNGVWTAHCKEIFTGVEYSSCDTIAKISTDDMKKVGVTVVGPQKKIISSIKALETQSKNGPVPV
Method: as §1, §2
(§3) In a final reaction volume of 25 EphA3 (h) (5-10 mU) is incubated with 8 mM MOPS pH 7.0, 0.2 mM EDTA, 0.1 mg/ml poly(Glu, Tyr) 4:1, 10 mM MgAcetate and [γ-33P-ATP] (specific activity approx. 500 cpm/pmol, concentration as required). The reaction is initiated by the addition of the MgATP mix. After incubation for 40 minutes at room temperature, the reaction is stopped by the addition of 5 μl of a 3% phosphoric acid solution. 10 μl of the reaction is then spotted onto a Filtermat A and washed three times for 5 minutes in 75 mM phosphoric acid and once in methanol prior to drying and scintillation counting.

Flt1(h) = target: T3, Flt1(h) (Homo sapiens, UniProt P17948); test: KinaseProfiler assay (Upstate), Flt1; format: biochemical
T3 construct: purchased Upstate Biotechnology (Dundee, UK), KinaseProfiler service
Method: as §1, §2
as §3, with “Flt1” for “EphA3”, “250 μM […],” for “0.1 mg/ml poly(Glu, Tyr) 4:1,”, “P30 filtermat” for “Filtermat A”

Flt4(h) = target: T4, Flt4(h) (Homo sapiens, UniProt P35916); test: KinaseProfiler assay (Upstate), Flt4; format: biochemical
T4 construct: purchased Upstate Biotechnology (Dundee, UK), KinaseProfiler service
Method: as §1, §2

Ret(h) = target: T5, Ret(h) (Homo sapiens, UniProt P07949); test: KinaseProfiler assay (Upstate), Ret; format: biochemical
T5 construct: purchased Upstate Biotechnology (Dundee, UK), KinaseProfiler service
Method: as §1, §2
as §3, with “μl, Ret” for “EphA3”, “250 μM […],” for “0.1 mg/ml poly(Glu, Tyr) 4:1,”, “P30 filtermat” for “Filtermat A”

mNFS-60 = test: Cellular assay (Alamar Blue), mNFS-60 with human M-CSF; format: cell-based; settings: human M-CSF at 20 ng/ml, 72 hr
Method: Cells for the assays were prepared by harvesting cells from culture, and then diluting them in the appropriate growth medium to between 40,000 cell/mL and 600,000 cell/mL, depending on the cell line.
The compounds to be tested were added (104, 10× final concentration) to a flat bottomed 96-well plate. The cellular suspension (80 μL per well) was added, and one hour later the growth factor was added (human M-CSF at 20 ng/ml for mNFS-60, mouse IL-3 at 5 ng/ml for Baf3-WT). The plate was then incubated for 72 hr at 37° C., 5% CO2. Alamar Blue (10^4 per well) was added and the plates returned to the incubator for a further 4-8 hours.
The plates were then read using a fluorescence plate reader at excitation 544 nm and emission 590 nm.

T1 sequence (P12931 whole entry): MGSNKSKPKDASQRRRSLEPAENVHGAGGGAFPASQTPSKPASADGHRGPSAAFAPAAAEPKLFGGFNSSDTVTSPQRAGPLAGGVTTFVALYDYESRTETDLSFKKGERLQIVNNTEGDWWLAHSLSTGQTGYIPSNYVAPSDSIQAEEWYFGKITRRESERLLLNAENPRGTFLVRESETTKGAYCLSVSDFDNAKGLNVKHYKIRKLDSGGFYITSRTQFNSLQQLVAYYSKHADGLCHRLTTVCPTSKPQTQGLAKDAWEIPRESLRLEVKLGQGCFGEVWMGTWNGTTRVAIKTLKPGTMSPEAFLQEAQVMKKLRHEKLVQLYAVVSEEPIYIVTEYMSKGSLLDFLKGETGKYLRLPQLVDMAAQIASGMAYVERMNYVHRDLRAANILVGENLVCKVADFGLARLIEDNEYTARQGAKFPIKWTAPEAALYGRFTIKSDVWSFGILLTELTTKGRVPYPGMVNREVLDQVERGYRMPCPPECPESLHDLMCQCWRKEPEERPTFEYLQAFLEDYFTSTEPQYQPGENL
T3 sequence (P17948 27-1338): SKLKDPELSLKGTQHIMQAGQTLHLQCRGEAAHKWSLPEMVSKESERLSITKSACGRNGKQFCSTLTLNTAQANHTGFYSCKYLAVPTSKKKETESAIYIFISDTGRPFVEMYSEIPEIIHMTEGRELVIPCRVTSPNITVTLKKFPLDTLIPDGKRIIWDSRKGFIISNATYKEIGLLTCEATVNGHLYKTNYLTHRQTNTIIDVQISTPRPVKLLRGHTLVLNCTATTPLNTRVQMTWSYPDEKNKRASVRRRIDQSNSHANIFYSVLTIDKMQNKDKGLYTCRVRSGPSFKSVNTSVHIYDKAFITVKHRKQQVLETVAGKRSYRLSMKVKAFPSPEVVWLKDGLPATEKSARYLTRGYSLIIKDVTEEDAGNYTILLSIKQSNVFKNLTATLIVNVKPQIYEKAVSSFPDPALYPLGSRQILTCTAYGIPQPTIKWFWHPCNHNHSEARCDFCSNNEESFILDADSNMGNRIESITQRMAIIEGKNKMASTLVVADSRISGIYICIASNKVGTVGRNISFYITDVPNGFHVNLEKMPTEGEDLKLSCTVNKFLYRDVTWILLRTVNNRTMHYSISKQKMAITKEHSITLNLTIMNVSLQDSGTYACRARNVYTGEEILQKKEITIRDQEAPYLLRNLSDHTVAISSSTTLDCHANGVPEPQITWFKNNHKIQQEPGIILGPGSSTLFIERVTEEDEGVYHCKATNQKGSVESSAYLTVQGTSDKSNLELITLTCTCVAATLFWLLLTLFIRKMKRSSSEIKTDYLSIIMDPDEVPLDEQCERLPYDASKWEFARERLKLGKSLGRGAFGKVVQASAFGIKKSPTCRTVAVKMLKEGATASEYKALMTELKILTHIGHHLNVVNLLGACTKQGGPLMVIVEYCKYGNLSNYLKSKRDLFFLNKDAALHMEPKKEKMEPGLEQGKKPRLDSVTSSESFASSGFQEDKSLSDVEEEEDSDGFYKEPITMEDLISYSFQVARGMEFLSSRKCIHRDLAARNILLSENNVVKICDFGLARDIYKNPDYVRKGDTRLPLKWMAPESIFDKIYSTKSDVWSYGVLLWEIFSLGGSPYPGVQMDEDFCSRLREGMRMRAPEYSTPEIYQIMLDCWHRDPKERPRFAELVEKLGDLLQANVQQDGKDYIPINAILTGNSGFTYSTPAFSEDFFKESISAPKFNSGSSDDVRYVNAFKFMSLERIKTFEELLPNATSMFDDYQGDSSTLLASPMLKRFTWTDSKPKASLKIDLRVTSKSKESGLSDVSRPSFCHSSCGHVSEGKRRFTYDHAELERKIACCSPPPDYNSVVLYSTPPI
T4 sequence (P35916 25-1363): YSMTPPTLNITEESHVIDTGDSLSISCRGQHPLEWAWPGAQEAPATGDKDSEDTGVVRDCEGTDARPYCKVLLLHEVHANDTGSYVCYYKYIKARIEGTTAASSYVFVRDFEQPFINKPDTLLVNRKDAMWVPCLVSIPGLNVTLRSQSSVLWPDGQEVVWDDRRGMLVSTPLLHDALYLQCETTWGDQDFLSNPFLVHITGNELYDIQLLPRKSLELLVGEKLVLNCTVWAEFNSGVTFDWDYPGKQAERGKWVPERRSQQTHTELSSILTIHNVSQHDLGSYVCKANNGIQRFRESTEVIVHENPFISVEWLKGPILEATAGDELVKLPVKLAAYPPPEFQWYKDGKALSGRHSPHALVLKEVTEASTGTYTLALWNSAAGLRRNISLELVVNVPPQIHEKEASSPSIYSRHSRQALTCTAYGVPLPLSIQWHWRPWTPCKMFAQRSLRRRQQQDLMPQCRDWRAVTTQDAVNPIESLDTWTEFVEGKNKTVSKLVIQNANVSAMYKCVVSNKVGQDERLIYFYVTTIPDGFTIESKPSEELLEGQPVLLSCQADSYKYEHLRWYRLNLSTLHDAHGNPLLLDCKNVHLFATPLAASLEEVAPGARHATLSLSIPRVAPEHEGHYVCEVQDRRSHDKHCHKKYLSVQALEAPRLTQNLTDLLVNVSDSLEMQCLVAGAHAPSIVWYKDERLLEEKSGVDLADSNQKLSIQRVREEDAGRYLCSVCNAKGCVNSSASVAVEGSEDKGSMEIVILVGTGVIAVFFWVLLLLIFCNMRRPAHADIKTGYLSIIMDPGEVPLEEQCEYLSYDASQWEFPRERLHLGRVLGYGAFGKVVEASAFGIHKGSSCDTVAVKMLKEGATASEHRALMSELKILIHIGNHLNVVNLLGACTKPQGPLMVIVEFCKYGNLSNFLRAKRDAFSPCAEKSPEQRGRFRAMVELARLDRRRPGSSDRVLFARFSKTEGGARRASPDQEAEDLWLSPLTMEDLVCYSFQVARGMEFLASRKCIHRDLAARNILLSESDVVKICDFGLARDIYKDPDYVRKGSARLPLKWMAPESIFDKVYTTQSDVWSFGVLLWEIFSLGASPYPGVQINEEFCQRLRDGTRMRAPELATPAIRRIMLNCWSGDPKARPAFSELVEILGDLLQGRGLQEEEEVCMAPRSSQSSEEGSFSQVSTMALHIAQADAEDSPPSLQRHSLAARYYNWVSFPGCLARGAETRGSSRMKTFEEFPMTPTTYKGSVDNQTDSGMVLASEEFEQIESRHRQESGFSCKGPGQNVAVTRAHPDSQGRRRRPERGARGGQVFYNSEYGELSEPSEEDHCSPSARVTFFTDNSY
T5 sequence (P07949 29-1114): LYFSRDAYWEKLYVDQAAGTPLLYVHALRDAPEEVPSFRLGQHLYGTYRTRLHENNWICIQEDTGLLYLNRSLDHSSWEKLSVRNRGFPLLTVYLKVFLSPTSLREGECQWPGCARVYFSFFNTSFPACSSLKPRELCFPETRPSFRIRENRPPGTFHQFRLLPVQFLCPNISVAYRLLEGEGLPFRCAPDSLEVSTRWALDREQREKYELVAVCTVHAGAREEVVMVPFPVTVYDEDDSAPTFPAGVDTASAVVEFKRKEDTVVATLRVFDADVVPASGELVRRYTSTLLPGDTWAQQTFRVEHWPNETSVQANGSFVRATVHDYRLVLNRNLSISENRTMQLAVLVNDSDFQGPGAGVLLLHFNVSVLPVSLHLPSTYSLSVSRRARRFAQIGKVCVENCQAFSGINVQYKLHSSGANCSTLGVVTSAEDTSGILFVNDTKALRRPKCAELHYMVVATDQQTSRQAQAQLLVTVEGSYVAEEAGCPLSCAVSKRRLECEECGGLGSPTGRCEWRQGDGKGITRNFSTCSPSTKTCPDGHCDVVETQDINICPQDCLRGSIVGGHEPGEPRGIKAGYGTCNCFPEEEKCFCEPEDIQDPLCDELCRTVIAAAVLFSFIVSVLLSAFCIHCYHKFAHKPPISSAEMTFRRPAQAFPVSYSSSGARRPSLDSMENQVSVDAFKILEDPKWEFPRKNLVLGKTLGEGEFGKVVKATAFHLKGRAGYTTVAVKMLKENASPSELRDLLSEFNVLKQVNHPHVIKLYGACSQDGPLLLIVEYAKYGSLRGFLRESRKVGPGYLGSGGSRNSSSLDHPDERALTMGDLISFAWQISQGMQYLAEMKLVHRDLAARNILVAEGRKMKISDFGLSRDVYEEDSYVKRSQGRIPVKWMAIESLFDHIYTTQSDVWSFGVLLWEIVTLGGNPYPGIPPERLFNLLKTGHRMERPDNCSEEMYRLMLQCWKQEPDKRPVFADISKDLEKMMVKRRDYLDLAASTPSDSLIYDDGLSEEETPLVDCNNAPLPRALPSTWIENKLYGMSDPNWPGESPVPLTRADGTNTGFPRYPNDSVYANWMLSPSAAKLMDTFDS

Row | Compound | inhibition at 0.1 µM (cSRC(h)) | inhibition at 1 µM (cSRC(h)) | inhibition at 0.1 µM (EphA3(h)) | inhibition at 1 µM (EphA3(h)) | inhibition at 0.1 µM (Flt1(h)) | inhibition at 1 µM (Flt1(h)) | inhibition at 0.1 µM (Flt4(h)) | inhibition at 1 µM (Flt4(h)) | inhibition at 0.1 µM (Ret(h)) | inhibition at 1 µM (Ret(h)) | IC50 (mNFS-60)
1 | C[C@H](Nc1cncc(-c2cccc(N3CCOCC3)c2)n1)c1cccc(NC(=O)c2cccc(C(F)(F)F)c2)c1 [Compound 149] | 69% | 96% | 46% | 94% | 56% | 99% | 96% | 99% | 89% | 96% | < 1 µM
2 | Cc1cccc(C(=O)Nc2cccc([C@H](C)Nc3cncc(-c4cccc(N5CCOCC5)c4)n3)c2)c1 [Compound 147] | 45% | 87% | 44% | 91% | 95% | 100% | 100% | 99% | 68% | 92% | < 0.2 µM
3 | Cc1cccc(C(=O)Nc2cccc([C@H](C)Nc3cncc(C(N)=O)n3)c2)c1 [Compound 133, (S)-6-(1-(3-(3-methylbenzamido)phenyl)ethylamino)pyrazine-2-carboxamide] | 1% | 14% | -4% | 34% | 92% | 99% | 95% | 100% | 1% | 36% | < 0.2 µM
4 | Cc1cccc(C(=O)Nc2cccc([C@H](C)Nc3cncc(-c4ccc(S(N)(=O)=O)cc4)n3)c2)c1 [Compound 77] | 23% | 74% | 17% | 70% | 98% | 100% | 98% | 97% | 22% | 67% | < 0.2 µM
5 | Cc1cccc(C(=O)Nc2ccc(C)c([C@H](C)Nc3cncc(Cl)n3)c2)c1 [Compound 168] | 53% | 95% | 69% | 98% | 91% | 100% | 96% | 97% | 39% | 95% | 
6 | C[C@H](Nc1cncc(Cl)n1)c1cccc(NC(=O)c2cccc(C(F)(F)F)c2)c1 [Compound 114, (S)—N-(3-(1-(6-chloropyrazin-2-ylamino)ethyl)phenyl)-3-(trifluoromethyl)benzamide] | 24% | 80% | 24% | 92% | 85% | 99% | 92% | 99% | 66% | 95% | < 1 µM
7 | Cc1cccc(C(=O)Nc2cccc([C@H](C)Nc3cncc(-n4ccnc4)n3)c2)c1 [Compound 143, (S)—N-(3-(1-(6-(1H-imidazol-1-yl)pyrazin-2-ylamino)ethyl)phenyl)-3-methylbenzamide] | 14% | 65% | 0% | 58% | 90% | 96% | 95% | 99% | 8% | 58% | < 0.2 µM
8 | Cc1cccc(C(=O)Nc2cccc([C@H](C)Nc3cncc(-c4ccc(N5CCN(C)CC5)cc4)n3)c2)c1 [Compound 129] | 38% | 85% | 18% | 76% | 96% | 100% | 100% | 100% | 19% | 75% | < 0.2 µM
9 | C[C@H](Nc1cncc(-c2ccc(N3CCN(C)CC3)cc2)n1)c1cccc(NC(=O)c2cccc(C(F)(F)F)c2)c1 [Compound 148] | 86% | 96% | 79% | 99% | 92% | 99% | 96% | 99% | 89% | 96% | < 0.2 µM

Source: patent US9029386B2, “Pyridine derivatives useful as kinase inhibitors” (YM Biosciences Australia Pty Ltd, priority 2006, dated 2015)
